From patent US20040266718A1, “Inhibition of specific histone deacetylase isoforms” (priority 2001, published 2004)
d = 2'-deoxy (DNA); m = 2'-O-methyl

Key:
A549 [1] = test: cell growth analysis (trypan blue cell count), A549; format: cell-based, human; conditions: 50 nM, 72 hours
Method: (§1) Briefly, human A549 and/or T24 human bladder carcinoma cells were seeded in 10 cm tissue culture dishes one day prior to oligonucleotide treatment. The cell lines were obtained from the American Type Culture Collection (ATCC) (Manassas, Va.) and were grown under the recommended culture conditions. Before the addition of the oligonucleotides, cells were washed with PBS (phosphate buffered saline). Next, lipofectin transfection reagent (GIBCO BRL Mississauga, Ontario, Calif.), at a concentration of 6.25 μg/ml, was added to serum free OPTIMEM medium (GIBCO BRL, Rockville, Md.), which was then added to the cells. The oligonucleotides to be screened were then added directly to the cells (i.e., one oligonucleotide per plate of cells). Mismatched oligonucleotides were used as controls. The same concentration of oligonucleotide (e.g., 50 nM) was used per plate of cells for each oligonucleotide tested.
(§2) In order to determine the effect of HDAC OSDNs on cell growth and cell death through apoptosis, A549 or T24 cells, MDAmb231 cells, and HMEC cells (ATCC, Manassas, Va.) were treated with HDAC OSDNs as previously described.
(§3) Cells were harvested and cell numbers counted by trypan blue exclusion using a hemocytometer. Percentage of inhibition was calculated as (100—AS cell numbers/control cell numbers)%.

T24 [2] = test: cell growth analysis (trypan blue cell count), T24; format: cell-based, human; conditions: 50 nM, 72 hours
Method: as §1, §2, §3

HMEC [3] = test: cell growth analysis (trypan blue cell count), HMEC; format: cell-based, human; conditions: 50 nM, 72 hours, normal cells
Method: as §1, §2, §3

A549 [4] = test: apoptosis, Cell Death Detection ELISA, A549; format: cell-based, human; conditions: OSDN
Method: as §2
(§4) For the apoptosis study, cells were analyzed using the Cell Death Detection ELISA^Plus kit (Roche Diagnostic GmBH, Mannheim, Germany) according to the manufacturer's directions. Typically, 10,000 cells were plated in 96-well tissue culture dishes for 2 hours before harvest and lysis. Each sample was analyzed in duplicate. ELISA reading was done using a MR700 plate reader (DYNEX Technology, Ashford, Middlesex, England) at 410 nm. The reference was set at 490 nm.

T24 [5] = test: apoptosis, Cell Death Detection ELISA, T24; format: cell-based, human; conditions: OSDN
Method: as §2, §4

MDAmb231 [6] = test: apoptosis, Cell Death Detection ELISA, MDAmb231; format: cell-based, human; conditions: OSDN
Method: as §2, §4

HMEC [7] = test: apoptosis, Cell Death Detection ELISA, HMEC; format: cell-based, human; conditions: OSDN, normal cells
Method: as §2, §4

human HDAC-6 RNA = test: antisense screen by Northern blot in T24 cells, HDAC-6; format: cell-based; conditions: screened as above (T24 cells, 100 nM, 24 hours)
Method: Thirteen phosphorothioate ODNs containing sequences complementary to the 5′ or 3′ untranslated regions of the human HDAC-6 gene (GenBank Accession No. AJ011972) were screened as above. […] HDAC-6 MM oligo was created as a control; compared to the antisense oligo, it contains a 7-base mismatch.
as §1
(§5) Cells were harvested, and total RNAs were analyzed by Northern blot analysis. Briefly, total RNA was extracted using RNeasy miniprep columns (QIAGEN). […]

human cancer cells = test: cell growth and apoptosis of human cancer cells; format: cell-based; conditions: text summary of FIGS. 11-13, Tables 4 and 5
Method: as §2, §4, §3

MDAmb231 [8] = test: cell growth analysis (trypan blue cell count), MDAmb231; format: cell-based, human; conditions: 50 nM, 72 hours
Method: as §1, §2, §3

human HDAC-4 RNA = test: antisense screen by Northern blot in T24 cells, HDAC-4; format: cell-based; conditions: screened as above (T24 cells, 100 nM, 24 hours)
Method: Seventeen phosphorothioate ODNs containing sequences complementary to the 5′ or 3′ UTR of the human HDAC-4 gene (GenBank Accession No. AB006626) were screened as above. […] HDAC-4 MM1 and MM2 oligonucleotides were created as controls; compared to the antisense oligonucleotides, they each contain a 6-base mismatch.
as §1, §5

[9] = tested on: p21 protein in A549 cells; test: Western blot of p21 protein in A549 cells; format: cell-based, human; conditions: FIG. 15
human HDAC-7 RNA = test: antisense screen by Northern blot in T24 cells, HDAC-7; format: cell-based; conditions: screened as above (T24 cells, 100 nM, 24 hours)
Method: Eighteen phosphorothioate ODNs containing sequences complementary to the 5′ or 3′ untranslated regions of the human HDAC-7 gene (GenBank Accession No. AF239243) were screened as above.
as §1
Cells were harvested, and total RNAs were analyzed by Northern blot analysis. Briefly, total RNA was extracted using RNeasy miniprep columns (QIAGEN). Ten to twenty μg of total RNA was run on a formaldehyde-containing 1% agarose gel with 0.5 M sodium phosphate (pH 7.0) as the buffer system. […]

Substance | Growth Inhibition (AS vs. MM) A549 (A549 [1]) | Growth Inhibition (AS vs. MM) T24 (T24 [2]) | Growth Inhibition (AS vs. MM) HMEC (HMEC [3]) | Apoptosis After 48 Hour Treatment A549 (A549 [4]) | Apoptosis After 48 Hour Treatment T24 (T24 [5]) | Apoptosis After 48 Hour Treatment MDAmb231 (MDAmb231 [6]) | Apoptosis After 48 Hour Treatment HMEC (HMEC [7]) | antisense activity to human HDAC-6 (RNA expression, Northern blot) (human HDAC-6 RNA) | growth arrest and apoptosis of human cancer cells (human cancer cells) | Growth Inhibition (AS vs. MM) MDAmb231 (MDAmb231 [8]) | antisense activity to human HDAC-4 (RNA expression, Northern blot) (human HDAC-4 RNA) | expression of the p21 protein [9] | antisense activity to human HDAC-7 (RNA expression, Northern blot) (human HDAC-7 RNA)
HDAC-6 AS: antisense oligonucleotide to human HDAC6, 5′-CAGGCTGGAATGAGCTACAG-3′ (SEQ ID NO:29) (chemistry not given here) | − (no inhibition) | − (no inhibition) | − (no inhibition) | − (< = 2x fold over non-specific background) | − (< = 2x fold over non-specific background) | − (< = 2x fold over non-specific background) | − (< = 2x fold over non-specific background) | antisense activity | no effect | – | – | – | –
HDAC-4 AS1: antisense oligonucleotide to human HDAC4, 5-GCTGCCTGCCGTGCCCACCC-3′ (SEQ ID NO:24) (sugars from the 5' end m4 d12 m4, all phosphorothioate, methylation of C and T or U not given here) | +++ (>75% inhibition) | ++ (50-75% inhibition) | – | +++ (5-8X fold) | + (2-3X fold) | ++ (3-5X fold) | − (< = 2x fold over non-specific background) | – | – | ++ (50-75% inhibition) | antisense activity | induces the expression of the p21 protein | –
HDAC-7 AS: antisense oligonucleotide to human HDAC7, 5′-CTTCAGCCAGGATGCCCACA-3′ (SEQ ID NO:31) (sugars from the 5' end m4 d12 m4, all phosphorothioate, methylation of C and T or U not given here) | – | – | – | – | – | – | – | – | – | – | – | – | antisense activity
